Format in all cases: cell-based
Series [1] has as its target T1, Glucocorticoid receptor (Homo sapiens) (UniProt P04150).
T1 sequence (whole entry): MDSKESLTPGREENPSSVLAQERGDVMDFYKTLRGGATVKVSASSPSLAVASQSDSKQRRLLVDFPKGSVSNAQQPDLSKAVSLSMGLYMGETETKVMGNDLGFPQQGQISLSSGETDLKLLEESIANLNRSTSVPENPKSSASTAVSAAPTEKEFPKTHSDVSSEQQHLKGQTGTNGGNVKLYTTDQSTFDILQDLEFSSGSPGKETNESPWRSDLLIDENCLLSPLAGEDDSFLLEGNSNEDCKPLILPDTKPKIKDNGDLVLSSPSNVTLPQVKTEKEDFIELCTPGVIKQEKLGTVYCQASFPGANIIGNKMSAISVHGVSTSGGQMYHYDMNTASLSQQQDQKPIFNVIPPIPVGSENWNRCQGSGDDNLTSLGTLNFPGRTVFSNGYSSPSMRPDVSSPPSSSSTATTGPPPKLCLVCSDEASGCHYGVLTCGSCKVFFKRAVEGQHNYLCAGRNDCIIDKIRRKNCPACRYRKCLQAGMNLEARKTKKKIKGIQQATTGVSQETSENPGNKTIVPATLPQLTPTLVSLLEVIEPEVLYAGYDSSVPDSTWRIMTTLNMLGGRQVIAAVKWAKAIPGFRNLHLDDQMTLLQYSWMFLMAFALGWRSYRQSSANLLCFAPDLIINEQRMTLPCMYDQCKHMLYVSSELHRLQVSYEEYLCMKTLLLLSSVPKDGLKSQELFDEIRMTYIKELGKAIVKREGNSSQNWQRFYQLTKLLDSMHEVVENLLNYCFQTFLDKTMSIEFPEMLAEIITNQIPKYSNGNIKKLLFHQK
The series is described as follows: Inhibition of EGFP-tagged GR nuclear translocation in human U2OS cells at 2.5 uM after 1 hr using Hoechst staining by fluorescence microscopy relative to control.

Series [2] concerns the target T1, Glucocorticoid receptor (Homo sapiens). The series is described as follows: Inhibition of EGFP-tagged GR nuclear translocation in human U2OS cells at 250 uM after 1 hr using Hoechst staining by fluorescence microscopy relative to control.
Series [3] shares this target. The series is described as follows: Inhibition of EGFP-tagged GR nuclear translocation in human SH-SY5Y cells at 250 uM after 1 hr using Hoechst staining by fluorescence microscopy relative to control.
The subject of the next series is L929. The series is described as follows: Cytotoxicity against mouse L929 cells after 5 days by MTT assay. The following applies: for Activity: mouse, l929, 120 h.
The target in series [4] is T1, Glucocorticoid receptor (Homo sapiens). As to the kind of experiment: Inhibition of EGFP-tagged GR nuclear translocation in human HaCaT cells at 250 uM after 1 hr using Hoechst staining by fluorescence microscopy relative to control.
For series [5] the target is unchanged. The series is described as follows: Inhibition of EGFP-tagged GR nuclear translocation in human SH-SY5Y cells at 2.5 uM after 1 hr using Hoechst staining by fluorescence microscopy relative to control.
For series [6] the target is unchanged. As to the kind of experiment: Inhibition of EGFP-tagged GR nuclear translocation in human HaCaT cells at 2.5 uM after 1 hr using Hoechst staining by fluorescence microscopy relative to control.
A short description of series [7]: Inhibition of IL1-beta-induced GFP-tagged NFkappaB nuclear translocation in CHO cells pretreated for 4 hrs before IL1-beta challenge using Hoechst staining by fluorescence microscopy relative to control. The note with it: Cricetulus griseus.

The source made the active and inactive calls. The rule behind the calls is not given here.

What is called IC50 is the concentration needed to halve the response being measured. With `C[C@H](C(=O)O)[C@H]1CC[C@H]2[C@@H]3[C@H](O)CC4=CC(=O)C=C[C@]4(C)[C@H]3C[C@H](O)[C@]12C` (relative stereo), the inhibition result in series [1], in series [2], in series [3], in series [4], in series [5] and in series [6] was “Active” each time. The same compound displayed an IC50 in the series with L929 (Mus musculus, L929, 120 h) of 30 µM.
For `CC(=O)[C@@H](C)[C@H]1CC[C@H]2[C@@H]3[C@H](O)CC4=CC(=O)C=C[C@]4(C)[C@H]3C[C@H](O)[C@]12C` (relative stereo), the inhibition result in series [1], in series [2], in series [3], in series [4], in series [5] and in series [6] was “Active” each time. In the series on L929, the Activity result is on record as “Non-toxic”.
On to `C[C@H](CCC(=O)O)[C@H]1CC[C@H]2[C@@H]3[C@H](O)CC4=CC(=O)C=C[C@]4(C)[C@H]3C[C@H](O)[C@]12C` (relative stereo), for which the inhibition result in series [1], in series [2], in series [3], in series [4], in series [5] and in series [6] was “Active” each time. Further, in series [7], the IC50 came out at 71 µM. In addition, in the series on L929, the Activity entry is given as “Non-toxic”.
